Experimental findings from patent US20250163104A1, “MACROCYCLIC IMMUNOMODULATORS” (priority 2021, published 2025) are described below.

Where a SMILES comes first, the peptide text is derived from it. Bridges are numbered along the chain shown (N, C = ends). [ ]: non-standard residue; d: D form. Bip(3'-COOH) = N[C@@H](Cc1ccc(-c2cccc(C(=O)O)c2)cc1)C(=O)O; Bip(4'-COOH) = N[C@@H](Cc1ccc(-c2ccc(C(=O)O)cc2)cc1)C(=O)O; Phe(4-COOH) = N[C@@H](Cc1ccc(C(=O)O)cc1)C(=O)O; Bip = N[C@@H](Cc1ccc(-c2ccccc2)cc1)C(=O)O; 3Pal = N[C@@H](Cc1cccnc1)C(=O)O; Cha = N[C@@H](CC1CCCCC1)C(=O)O; Orn = NCCC[C@H](N)C(=O)O; Dab = NCC[C@H](N)C(=O)O

The target in the experiment is T1, human PD-1 / PD-L1-Ig binding on Jurkat cell line over-expressing human PD-1 (Jurkat-PD-1) (Homo sapiens, UniProt Q15116).
T1 construct: expressed in transfected cells; host or cells: Jurkat
T1 sequence (Q15116 25-288): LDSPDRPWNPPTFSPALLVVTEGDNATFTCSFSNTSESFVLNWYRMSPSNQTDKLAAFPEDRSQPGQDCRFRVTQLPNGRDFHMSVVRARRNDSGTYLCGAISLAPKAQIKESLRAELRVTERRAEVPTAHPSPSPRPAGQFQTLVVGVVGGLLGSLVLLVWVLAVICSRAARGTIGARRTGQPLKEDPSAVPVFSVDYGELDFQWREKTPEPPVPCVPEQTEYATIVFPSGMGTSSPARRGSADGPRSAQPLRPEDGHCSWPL
The experiment can be described thus: Jurkat-PD-1 Cell Binding High-Content Screening Assay (CBA). The format is cell-based. Conditions: Jurkat-PD-1 cells, PE-labeled PD-L1-Ig 20 nM final; read-out: Jurkat HPD1_PDL1 IC50. In a few lines:
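Jurkat cells over-expressing human PD-1, in DMEM/10% FCS, pre-incubated with compound 2 h at 37° C. PE-labeled human PD-L1-Ig (20 nM final) added for 1 h; cells fixed in paraformaldehyde with Hoechst 33342 nuclear stain, washed, and bound fluorescence quantified by high-content imaging.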
As a reminder, the IC50 is the concentration needed to halve the response being measured. In the case of `CC(C)C[C@H]1NC(=O)[C@H](CCCN)NC(=O)[C@H](CCC(=O)O)NC(=O)[C@H](Cc2ccc(-c3ccccc3)cc2)NC(=O)[C@H](C(C)C)NC(=O)[C@H](Cc2c[nH]c3ccccc23)NC(=O)[C@H](CC(=O)O)NC(=O)[C@H](Cc2ccc(C(=O)O)cc2)NC(=O)[C@H](CC(N)=O)NC(=O)CSC[C@@H](C(=O)N[C@@H](C)C(N)=O)NC(=O)[C@H]([C@@H](C)O)NC(=O)[C@H](C(C)C)NC(=O)[C@H](CC2CCCCC2)NC(=O)[C@H](CCN)NC1=O` [Compound 2157] ({CH2CO}-N[Phe(4-COOH)]DWV[Bip]E[Orn][dL][Dab][Cha]VTCA-NH2; thioether N-14), the IC50 amounted to 8.1 nM.
On to `CC(C)C[C@H]1NC(=O)[C@H](CCCN)NC(=O)[C@H](CCC(=O)O)NC(=O)[C@H](Cc2ccc(-c3ccccc3)cc2)NC(=O)[C@H](C(C)C)NC(=O)[C@H](Cc2c[nH]c3ccccc23)NC(=O)[C@H](CC(=O)O)NC(=O)[C@H](Cc2ccc(C(=O)O)cc2)NC(=O)[C@H](Cc2ccccc2)NC(=O)CSC[C@@H](C(=O)N[C@@H](C)C(N)=O)NC(=O)[C@H]([C@@H](C)O)NC(=O)[C@H](C(C)C)NC(=O)[C@H](CC2CCCCC2)NC(=O)[C@H](CCN)NC1=O` [Compound 2158] ({CH2CO}-F[Phe(4-COOH)]DWV[Bip]E[Orn][dL][Dab][Cha]VTCA-NH2; thioether N-14), for which the IC50 was found to be 7.7 nM.
As for `CC(C)C[C@H]1NC(=O)[C@H](CCCN)NC(=O)[C@H](CCC(=O)O)NC(=O)[C@H](Cc2ccc(-c3ccccc3)cc2)NC(=O)[C@H](C(C)C)NC(=O)[C@H](Cc2c[nH]c3ccccc23)NC(=O)[C@H](CC(=O)O)NC(=O)[C@H](Cc2ccc(C(=O)O)cc2)NC(=O)[C@H](CN)NC(=O)CSC[C@@H](C(=O)N[C@@H](C)C(N)=O)NC(=O)[C@H]([C@@H](C)O)NC(=O)[C@H](C(C)C)NC(=O)[C@H](CC2CCCCC2)NC(=O)[C@H](CCN)NC1=O` [Compound 2159], the IC50 came out at 10.4 nM.
In the case of `CC(C)C[C@H]1NC(=O)[C@H](CCCN)NC(=O)[C@H](CCC(=O)O)NC(=O)[C@H](Cc2ccc(-c3ccccc3)cc2)NC(=O)[C@H](C(C)C)NC(=O)[C@H](Cc2c[nH]c3ccccc23)NC(=O)[C@H](CC(=O)O)NC(=O)[C@H](Cc2ccc(-c3cccc(C(=O)O)c3)cc2)NC(=O)[C@H](CC(N)=O)NC(=O)CSC[C@@H](C(=O)N[C@@H](C)C(N)=O)NC(=O)[C@H]([C@@H](C)O)NC(=O)[C@H](C(C)C)NC(=O)[C@H](CC2CCCCC2)NC(=O)[C@H](CCN)NC1=O` [Compound 2160] ({CH2CO}-N[Bip(3'-COOH)]DWV[Bip]E[Orn][dL][Dab][Cha]VTCA-NH2; thioether N-14), the IC50 came out at 14.3 nM.
With `CC(C)C[C@H]1NC(=O)[C@H](CCCN)NC(=O)[C@H](CCC(=O)O)NC(=O)[C@H](Cc2ccc(-c3ccccc3)cc2)NC(=O)[C@H](C(C)C)NC(=O)[C@H](Cc2c[nH]c3ccccc23)NC(=O)[C@H](CC(=O)O)NC(=O)[C@H](Cc2ccc(-c3cccc(C(=O)O)c3)cc2)NC(=O)[C@H](Cc2ccccc2)NC(=O)CSC[C@@H](C(=O)N[C@@H](C)C(N)=O)NC(=O)[C@H]([C@@H](C)O)NC(=O)[C@H](C(C)C)NC(=O)[C@H](CC2CCCCC2)NC(=O)[C@H](CCN)NC1=O` [Compound 2161] ({CH2CO}-F[Bip(3'-COOH)]DWV[Bip]E[Orn][dL][Dab][Cha]VTCA-NH2; thioether N-14), the IC50 worked out at 27 nM.
For the molecule `CC(C)C[C@H]1NC(=O)[C@H](CCCN)NC(=O)[C@H](CCC(=O)O)NC(=O)[C@H](Cc2ccc(-c3ccccc3)cc2)NC(=O)[C@H](C(C)C)NC(=O)[C@H](Cc2c[nH]c3ccccc23)NC(=O)[C@H](CC(=O)O)NC(=O)[C@H](Cc2ccc(-c3cccc(C(=O)O)c3)cc2)NC(=O)[C@H](CN)NC(=O)CSC[C@@H](C(=O)N[C@@H](C)C(N)=O)NC(=O)[C@H]([C@@H](C)O)NC(=O)[C@H](C(C)C)NC(=O)[C@H](CC2CCCCC2)NC(=O)[C@H](CCN)NC1=O` [Compound 2162], the IC50 was determined as 7.7 nM.
For `CC(C)C[C@H]1NC(=O)[C@H](CCCN)NC(=O)[C@H](CCC(=O)O)NC(=O)[C@H](Cc2ccc(-c3ccccc3)cc2)NC(=O)[C@H](C(C)C)NC(=O)[C@H](Cc2c[nH]c3ccccc23)NC(=O)[C@H](CC(=O)O)NC(=O)[C@H](Cc2ccc(-c3cccc(C(=O)O)c3)cc2)NC(=O)[C@H](Cc2ccc(OCC(=O)O)cc2)NC(=O)CSC[C@@H](C(=O)N[C@@H](C)C(N)=O)NC(=O)[C@H]([C@@H](C)O)NC(=O)[C@H](C(C)C)NC(=O)[C@H](CC2CCCCC2)NC(=O)[C@H](CCN)NC1=O` [Compound 2163], the IC50 is 17.6 nM.
As for `CC(C)C[C@H]1NC(=O)[C@H](CCCN)NC(=O)[C@H](CCC(=O)O)NC(=O)[C@H](Cc2ccc(-c3ccccc3)cc2)NC(=O)[C@H](C(C)C)NC(=O)[C@H](Cc2c[nH]c3ccccc23)NC(=O)[C@H](CC(=O)O)NC(=O)[C@H](Cc2ccc(-c3cccc(C(=O)O)c3)cc2)NC(=O)[C@H](Cc2ccncc2)NC(=O)CSC[C@@H](C(=O)N[C@@H](C)C(N)=O)NC(=O)[C@H]([C@@H](C)O)NC(=O)[C@H](C(C)C)NC(=O)[C@H](CC2CCCCC2)NC(=O)[C@H](CCN)NC1=O` [Compound 2164], the IC50 amounted to 8 nM.
As to `CC(C)C[C@H]1NC(=O)[C@H](CCCN)NC(=O)[C@H](CCC(=O)O)NC(=O)[C@H](Cc2ccc(-c3ccccc3)cc2)NC(=O)[C@H](C(C)C)NC(=O)[C@H](Cc2c[nH]c3ccccc23)NC(=O)[C@H](CC(=O)O)NC(=O)[C@H](Cc2ccc(-c3cccc(C(=O)O)c3)cc2)NC(=O)[C@H](CC(N)=O)NC(=O)CSC[C@@H](C(=O)N[C@@H](C)C(N)=O)NC(=O)[C@H]([C@@H](C)O)NC(=O)[C@H](C(C)C)NC(=O)[C@H](CC2CCCCC2)NC(=O)[C@H](CCN)NC1=O` [Compound 2165] ({CH2CO}-N[Bip(3'-COOH)]DWV[Bip]E[Orn][dL][Dab][Cha]VTCA-NH2; thioether N-14), the IC50 was found to be 24.1 nM.
For `CC(C)C[C@H]1NC(=O)[C@H](CCCN)NC(=O)[C@H](CCC(=O)O)NC(=O)[C@H](Cc2ccc(-c3ccccc3)cc2)NC(=O)[C@H](C(C)C)NC(=O)[C@H](Cc2c[nH]c3ccccc23)NC(=O)[C@H](CC(=O)O)NC(=O)[C@H](Cc2ccc(-c3cccc(C(=O)O)c3)cc2)NC(=O)[C@H](CN)NC(=O)CSC[C@@H](C(=O)N[C@@H](C)C(N)=O)NC(=O)[C@H]([C@@H](C)O)NC(=O)[C@H](C(C)C)NC(=O)[C@H](CC2CCCCC2)NC(=O)[C@H](CCN)NC1=O` [Compound 2166], the IC50 came to 22.7 nM.
For `CC(C)C[C@H]1NC(=O)[C@H](CCCN)NC(=O)[C@H](CCC(=O)O)NC(=O)[C@H](Cc2ccc(-c3ccccc3)cc2)NC(=O)[C@H](C(C)C)NC(=O)[C@H](Cc2c[nH]c3ccccc23)NC(=O)[C@H](CC(=O)O)NC(=O)[C@H](Cc2ccc(-c3ccc(C(=O)O)cc3)cc2)NC(=O)[C@H](Cc2ccccc2)NC(=O)CSC[C@@H](C(=O)N[C@@H](C)C(N)=O)NC(=O)[C@H]([C@@H](C)O)NC(=O)[C@H](C(C)C)NC(=O)[C@H](CC2CCCCC2)NC(=O)[C@H](CCN)NC1=O` [Compound 2167] ({CH2CO}-F[Bip(4'-COOH)]DWV[Bip]E[Orn][dL][Dab][Cha]VTCA-NH2; thioether N-14), the IC50 was determined as 17.2 nM.
`CC(C)C[C@H]1NC(=O)[C@H](CCCN)NC(=O)[C@H](CCC(=O)O)NC(=O)[C@H](Cc2ccc(-c3ccccc3)cc2)NC(=O)[C@H](C(C)C)NC(=O)[C@H](Cc2c[nH]c3ccccc23)NC(=O)[C@H](CC(=O)O)NC(=O)[C@H](Cc2ccc(-c3ccc(C(=O)O)cc3)cc2)NC(=O)[C@H](Cc2ccc(OCC(=O)O)cc2)NC(=O)CSC[C@@H](C(=O)N[C@@H](C)C(N)=O)NC(=O)[C@H]([C@@H](C)O)NC(=O)[C@H](C(C)C)NC(=O)[C@H](CC2CCCCC2)NC(=O)[C@H](CCN)NC1=O` [Compound 2168]: the IC50 came to 19.6 nM.
On to `CC(C)C[C@H]1NC(=O)[C@H](CCCN)NC(=O)[C@H](CCC(=O)O)NC(=O)[C@H](Cc2ccc(-c3ccccc3)cc2)NC(=O)[C@H](C(C)C)NC(=O)[C@H](Cc2c[nH]c3ccccc23)NC(=O)[C@H](CC(=O)O)NC(=O)[C@H](Cc2ccc(-c3ccc(C(=O)O)cc3)cc2)NC(=O)[C@H](Cc2ccncc2)NC(=O)CSC[C@@H](C(=O)N[C@@H](C)C(N)=O)NC(=O)[C@H]([C@@H](C)O)NC(=O)[C@H](C(C)C)NC(=O)[C@H](CC2CCCCC2)NC(=O)[C@H](CCN)NC1=O` [Compound 2169], for which the IC50 was determined as 40.8 nM.
As for `CC(C)C[C@H]1NC(=O)[C@H](CCCN)NC(=O)[C@H](CCC(=O)O)NC(=O)[C@H](Cc2ccc(-c3ccccc3)cc2)NC(=O)[C@H](C(C)C)NC(=O)[C@H](Cc2c[nH]c3ccccc23)NC(=O)[C@H](CC(=O)O)NC(=O)[C@H](Cc2cccnc2)NC(=O)[C@H](CC(N)=O)NC(=O)CSC[C@@H](C(=O)N[C@@H](C)C(N)=O)NC(=O)[C@H]([C@@H](C)O)NC(=O)[C@H](C(C)C)NC(=O)[C@H](CC2CCCCC2)NC(=O)[C@H](CCN)NC1=O` [Compound 2170] ({CH2CO}-N[3Pal]DWV[Bip]E[Orn][dL][Dab][Cha]VTCA-NH2; thioether N-14), the IC50 amounted to 5.4 nM.
Consider `CC(C)C[C@H]1NC(=O)[C@H](CCCN)NC(=O)[C@H](CCC(=O)O)NC(=O)[C@H](Cc2ccc(-c3ccccc3)cc2)NC(=O)[C@H](C(C)C)NC(=O)[C@H](Cc2c[nH]c3ccccc23)NC(=O)[C@H](CC(=O)O)NC(=O)[C@H](Cc2cccnc2)NC(=O)[C@H](Cc2ccccc2)NC(=O)CSC[C@@H](C(=O)N[C@@H](C)C(N)=O)NC(=O)[C@H]([C@@H](C)O)NC(=O)[C@H](C(C)C)NC(=O)[C@H](CC2CCCCC2)NC(=O)[C@H](CCN)NC1=O` [Compound 2171] ({CH2CO}-F[3Pal]DWV[Bip]E[Orn][dL][Dab][Cha]VTCA-NH2; thioether N-14), for which the IC50 came out at 19.1 nM.
